We go through eight compounds from US20140171424A1, “HYPERTENSION AND HYPERURICEMIA” (ARDEA BIOSCIENCES, INC., priority 2011, published 2014).

“And” between values parts separate entries of the source, which are not always exact repeats. Equal entries are not always repeated. Where two headings read alike, the source gives them in different places.

In assay [1] the target is T1, OAT4 (Homo sapiens, UniProt Q9NSA0).
T1 sequence (Q9NSA0 1-550): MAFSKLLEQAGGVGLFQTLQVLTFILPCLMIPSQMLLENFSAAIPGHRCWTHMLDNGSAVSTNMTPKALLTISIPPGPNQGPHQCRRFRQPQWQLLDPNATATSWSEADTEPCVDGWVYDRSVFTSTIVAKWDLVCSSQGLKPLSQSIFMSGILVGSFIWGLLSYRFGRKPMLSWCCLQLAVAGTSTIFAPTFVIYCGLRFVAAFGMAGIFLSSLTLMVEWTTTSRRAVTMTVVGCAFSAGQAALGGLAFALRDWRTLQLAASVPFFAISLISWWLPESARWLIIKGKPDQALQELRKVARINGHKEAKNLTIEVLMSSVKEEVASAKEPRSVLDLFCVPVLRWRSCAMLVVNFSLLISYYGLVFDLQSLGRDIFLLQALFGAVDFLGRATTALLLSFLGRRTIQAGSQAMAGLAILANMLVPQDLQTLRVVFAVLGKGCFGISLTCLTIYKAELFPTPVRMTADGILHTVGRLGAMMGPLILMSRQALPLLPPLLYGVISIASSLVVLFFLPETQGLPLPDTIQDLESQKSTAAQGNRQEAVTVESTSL
The conditions noted are these: read-out: IC50, inhibition of OAT4 uptake of 3H-estrone sulfate; cited from earlier work.

Assay [2] deals with T1, OAT4. Nature of the assay: OAT4 urate (14C-uric acid) transport in transfected HEK293/293T cells. Also on record: expressed in transfected cells. The class given is cell-based. The conditions noted are these: for OAT4 transport activity of 14C-uric acid: UA 100 μM, drug 100 μM, 5 min incubation, OAT4-expressing HEK293 cells. Here is the method:
(§1) For cultured cells, HEK293 cells stably expressing the transporters were produced through transfection of DNA constructs carrying the transporters, antibiotic selection, and clonal selection of clones with high transporter activity. Alternatively, cells transiently expressing the transporters were produced by reverse transfection of HEK293T cells. Transfectants were plated at high density onto poly-L-lysine coated multiwell plates and assayed 1-2 days later.

Assay [3] has as its target T1, OAT4. The experiment in a line: 3H-Estrone sulphate (ES) transport in 293T cells stably expressing OAT4. The class given is cell-based. Further details: expressed in transfected cells. The conditions noted are these: 1 mM HCTZ, varying concentrations of Lesinurad. Here is the method:
(§2) For cultured cells, HEK293 cells stably expressing the transporters were produced through transfection of DNA constructs carrying the transporters, antibiotic selection, and clonal selection of clones with high transporter activity. Alternatively, cells transiently expressing the transporters were produced by reverse transfection of HEK293T cells. Transfectants were plated at high density onto poly-L-lysine coated multiwell plates and assayed 1-2 days later. Results were similar for stable and transient expressing cells.

The target in assay [4] is T1, OAT4. The conditions noted are these: cited from earlier work; for effect on OAT4 uric acid transport activity: J. Am. Soc. Nephrol. 18:430 and 18:3101, 2007.
Assay [5] in a line: Clinical phase 2 study in gout patients not adequately responding to allopurinol (sUA <6 mg/dL responders). The class given is in vivo, human. The conditions noted are these: Week 4; Lesinurad added to allopurinol regimen; patients receiving thiazide diuretic. Here is the method: FIG. 10A represents a schematic of a clinical phase 2 study design. The study was a 4-week, double-blind, placebo-controlled clinical trial in 208 gout patients who were not adequately responding to allopurinol with serum urate (sUA)≧6 mg/dL while receiving a stable dose of allopurinol for at least 6 weeks. One of three doses of Lesinurad or matching placebo was added to the patients allopurinol regimen. The primary endpoint of the study was mean reduction in sUA at Week 4, with the key secondary endpoint the proportion of subjects with sUA <6.0 mg/dL at Week 4. A small number of patients in this trial received a thiazide diuretic during the treatment period; their response rates were compared to those patients not receiving concomitant thiazide diuretics and the results presented in FIG. 10B.

Assay [6] addresses T2, URAT1 (Homo sapiens, UniProt Q96S37).
T2 construct: expressed in transfected cells; host or cells: 293T cells
T2 sequence (Q96S37 1-553): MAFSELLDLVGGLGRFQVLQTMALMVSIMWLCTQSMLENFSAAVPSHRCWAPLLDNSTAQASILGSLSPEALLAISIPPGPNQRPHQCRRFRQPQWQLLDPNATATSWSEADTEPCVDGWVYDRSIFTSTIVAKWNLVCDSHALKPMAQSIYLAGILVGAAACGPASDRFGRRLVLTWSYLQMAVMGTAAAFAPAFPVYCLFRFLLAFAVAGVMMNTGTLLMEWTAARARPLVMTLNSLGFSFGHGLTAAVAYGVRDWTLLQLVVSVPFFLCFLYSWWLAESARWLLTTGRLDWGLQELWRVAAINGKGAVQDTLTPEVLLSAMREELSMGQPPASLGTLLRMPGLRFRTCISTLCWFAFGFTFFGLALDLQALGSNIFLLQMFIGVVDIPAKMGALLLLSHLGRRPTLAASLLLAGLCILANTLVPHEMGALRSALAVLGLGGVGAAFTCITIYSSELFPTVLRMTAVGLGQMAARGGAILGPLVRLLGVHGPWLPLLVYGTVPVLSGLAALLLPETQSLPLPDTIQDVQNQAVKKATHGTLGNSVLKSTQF
Nature of the assay: URAT1 UA transport in 293T cells. The conditions noted are these: 293T cells expressing URAT1 and/or OAT4; varying concentrations. The class given is cell-based. Here is the method:
as §1

The target in assay [7] is T1, OAT4. The experiment in a line: OAT4 transport of 6-carboxyfluorescein (CF) in transfected HEK293/HEK293T cells. The conditions noted are these: for OAT4 transport activity of 6-carboxyfluorescein: CF 5 μM, drug 100 μM, 5 min incubation, OAT4-expressing HEK293 cells. The class given is cell-based. Also on record: expressed in transfected cells. Here is the method: as §2

What is called IC50 is the concentration at which inhibition is half-maximal. Broadly, the EC50 is the concentration that produces a half-maximal response.

For `CCc1oc2cc(O)ccc2c1C(=O)c1cc(Br)c(O)c(Br)c1` [6-hydroxybenzbromarone], the IC50 in assay [1] is 3.2 µM. `CCc1oc2ccccc2c1C(=O)c1cc(Br)c(O)c(Br)c1` [Benzbromarone]: the IC50 in assay [2] (varying amounts of drug, read-out: OAT4 IC50 (OAT4 urate transport, cpm)) turned out to be 10 µM.

Regarding `NS(=O)(=O)c1cc2c(cc1Cl)NCNS2(=O)=O` [Hydrochlorothiazide, 6-Chloro-1,1-dioxo-3,4-dihydro-2H-1,2,4-benzothiadiazine-7-sulfonamide], the “effect of HCTZ on Lesinurad-mediated inhibition of OAT4 ES transport” value in assay [3] is given as “no effect on Lesinurad-mediated inhibition of OAT4 transporter activity”. In addition, the “effect on OAT4 uric acid transport activity” value in assay [4] is “increase OAT4 uric acid transport activity”. In addition, the “increase of OAT4-mediated uric acid uptake” value in assay [4] (one study) was 2.6 fold. For the compound `O=C(O)CSc1nnc(Br)n1-c1ccc(C2CC2)c2ccccc12` [Lesinurad, 2-(5-bromo-4-(4-cyclopropylnaphthalen-l-yl)-4H-1,2,4-triazol-3-ylthio)acetic acid], the “proportion of patients with sUA below 6 mg/dL, patients taking diuretics vs not” value in assay [5] is recorded as “patients receiving diuretics had responded well to Lesinurad”. In assay [6], the “percent inhibition of UA transport, URAT1” value was “inhibits URAT1 and OAT4 with similar potency”. With `Oc1ncnc2[nH]ncc12` [allopurinol], the “OAT4 transport activity of 6-carboxyfluorescein” value in assay [7] is given as “do not inhibit OAT4 transport activity”. Moreover, the “OAT4 transport activity of 14C-uric acid” value in assay [2] is listed as “do not inhibit OAT4 transport activity”. For the compound `O=c1[nH]c(=O)c2c[nH]nc2[nH]1` [oxypurinol], the “OAT4 transport activity of 6-carboxyfluorescein” value in assay [7] is reported as “do not inhibit OAT4 transport activity”. In addition, the “OAT4 transport activity of 14C-uric acid” value in assay [2] is “do not inhibit OAT4 transport activity”. Regarding `Cc1cccc(Nc2ccncc2S(=O)(=O)NC(=O)NC(C)C)c1` [torasemide], the “effect on OAT4 uric acid transport activity” value in assay [4] is on record as “increase OAT4 uric acid transport activity”. Regarding `O=c1[nH]c(=O)c2[nH]c(=O)[nH]c2[nH]1` [uric acid], the EC50 in assay [7] (HEK293T cells transiently transfected with OAT4, CF substrate, 0, 0.5, 1, 2 nM cold uric acid, read-out: EC50 of cold uric acid as competitive substrate for OAT4 of CF) was 900 µM and ~900 µM.
